The results in this text go back to patent publication US20250127905A1, “GLUTARIMIDE COMPOUND AND USE THEREOF” (MEDSHINE DISCOVERY INC., priority 2021, published 2025).

Where a name gives a salt, the structure may show the parent alone.

The target in one data set is T1, IRAK4 (Homo sapiens, UniProt Q9NWZ3).
T1 construct: expressed in transfected cells; host or cells: K562 IRAK4-HiBiT cells
T1 sequence (Q9NWZ3 1-460): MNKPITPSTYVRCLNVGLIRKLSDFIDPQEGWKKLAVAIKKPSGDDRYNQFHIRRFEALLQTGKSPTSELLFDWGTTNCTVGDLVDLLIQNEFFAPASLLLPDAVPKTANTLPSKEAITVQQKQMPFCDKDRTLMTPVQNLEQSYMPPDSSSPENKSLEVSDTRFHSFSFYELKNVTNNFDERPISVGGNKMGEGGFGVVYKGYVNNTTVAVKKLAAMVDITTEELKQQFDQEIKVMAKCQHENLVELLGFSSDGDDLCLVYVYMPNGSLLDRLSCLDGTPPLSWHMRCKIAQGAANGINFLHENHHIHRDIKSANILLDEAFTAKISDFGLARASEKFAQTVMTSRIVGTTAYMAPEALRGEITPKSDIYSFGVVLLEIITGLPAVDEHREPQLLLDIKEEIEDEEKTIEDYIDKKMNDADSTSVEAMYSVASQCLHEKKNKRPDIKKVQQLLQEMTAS
As to the kind of experiment: Target protein degradation effect in K562 IRAK4-HiBiT cells (Nano-Glo HiBiT). It counts as cell-based. To be noted: incubated 16 to 18 hours. As to the method:
Experimental purpose: In this experiment, the degradation effect of the test compound on the target protein IRAK4 in K562 IRAK4-HiBiT cells was detected.
• Cells: K562 IRAK4-HiBiT cells • Culture media: RPMI 1640+10% FBS+2 mM GlutaMax+1 mM sodium pyruvate+penicillin/streptomycin • Positive control: 1000 nM; negative control: 0.1% DMSO
• (1). The compound to be tested in powder form was dissolved in DMSO to 10 mM as a storage concentration, and 9 μL of the 10 mM compound to be tested was manually pipetted to column 1 and column 13 of an LDV plate using a pipette; • (2). 6 μL of DMSO was added to columns 2 to 12 and 14 to 24 using Multidrop Combi; [0688](3). the compound to be tested was 3-fold diluted (3 μL+6 μL) from columns 1 to 11 and 13 to 23 using Bravo; • (4). 25 nL of compound solution (columns 1 to 24 of the LDV plate) was transferred to an assay plate using Echo according to the plate layout; • (5). 25 nL of 1 mM positive control solution was transferred to the assay plate as a 100% degradation control (i.e., LC, HPE) and 25 nL of DMSO was transferred to the assay plate as a 0% control (i.e., HC, ZPE) using Echo.
• (1). The cell culture medium was discarded, and the cells were washed once with DPBS, digested with trypsin, and counted to prepare a cell suspension of […]; • (2). 25 µL/well of cell suspension was added to the assay plate containing the compound to be tested using Multidrop Combi at medium speed; • (3). the assay plate containing cells was returned to an incubator with 5% CO2 at 37° C. and incubated for 16 to 18 hours.
• (1). 25 µL/well of assay reagent (NanoGlo lysis buffer+substrate+LgBit protein) was added to the assay plate using Multidrop Combi at high speed, and the plate was shaken for 10 minutes; • (2). the plate was centrifuged at 2000 rpm for 1 minute to remove air bubbles; • (3). the plate was read on Envision using US Luminescence detection method.
The inhibition rate (IR) of the test compound was calculated using the following formula: IR (%)=(RLU vehicle control−RLU compound)/(RLU vehicle control−RLU positive control)×100%, and the vehicle control is the blank control. The inhibition rates of compounds at different concentrations were calculated in Excel, and then XLFit software was used to plot inhibition curves and calculate relevant parameters, including minimum inhibition rate, maximum inhibition rate, and DC50.
A general note: HiBiT is a short tag that completes a luciferase, so light tracks the accessible tagged protein.

Data set [1] can be described thus: Pharmacokinetic evaluation in mice, experimental operation A (CD-1). It counts as in vivo. To be noted: CD-1 mice; for bioavailability / clearance / Vd / half-life: male, mouse, plasma; for bioavailability: IV 1 mg/kg, PO 10 mg/kg, read-out: Bioavailability F; for Vd: read-out: Apparent volume of distribution; for half-life: read-out: Elimination half-life (converted). An excerpt:
In this study, CD-1 or C57BL/6N male mice were selected as test animals, and LC/MS/MS method was used to quantify plasma concentrations of the test compound intravenously injected or intragastrically administered to mice at different time points, so as to evaluate the pharmacokinetic profile of the test drug in mice.
CD-1 mice (male, 20 to 35 g, 7 to 10 weeks old, Beijing Vital River) or C57BL/6N mice (male, 20 to 30 g, 7 to 10 weeks old, Beijing Vital River)
A clarified solution or suspension of the test compound was injected into CD-1 mice (overnight fasting) via the tail vein (vehicle: 10% DMSO/10% Solutol/80% H2O), or intragastrically administered into CD-1 mice (overnight fasting). For intravenous injection, blood was collected from the saphenous vein at 0 h (pre-administration) and 0.083 h, 0.25 h, 0.5 h, 1 h, 2 h, 4 h, 8 h, and 24 h after administration, and placed in an anticoagulant tube added with EDTA-K2. The mixture was thoroughly vortexed and mixed, and centrifuged at 3200 g for 10 minutes at 4° C. to obtain plasma. For oral administration, blood was collected from the saphenous vein at 0.25 h, 0.5 h, 1 h, 2 h, 4 h, 8 h, and 24 h after administration, and placed in an anticoagulant tube added with EDTA-K2 (Jiangsu Kangjian Medical Apparatus Co., Ltd.). The mixture was thoroughly vortexed and mixed, and centrifuged at 3200 g for 10 minutes at 4° C. to obtain plasma. Plasma concentrations were determined by LC-MS/MS method, and relevant pharmacokinetic parameters were calculated using Phoenix WinNonlin™ Version 6.3 (Pharsight, Mountain View, CA) pharmacokinetic software with non-compartmental model linear-log trapezoidal method.

[2] abbreviates: Intragastric administration 10 mg/kg.

For `O=C1CCC(c2noc3c(NC(=O)CN4CCN(C[C@H]5CC[C@H](n6cc(NC(=O)c7cnn8ccc(N9CC%10CCC(C9)O%10)nc78)c(C(F)F)n6)CC5)CC4)cccc23)C(=O)N1` (stereo partly drawn) [Formate of WX018], on IRAK4, the DC50 worked out at 9.11 nM and the Maximum inhibition rate worked out at 97.79%.
Consider `O=C1CCC(c2noc3c(CC(=O)NC4CCN(C[C@H]5CC[C@H](n6cc(NC(=O)c7cnn8ccc(N9C[C@H]%10C[C@@H]9CO%10)nc78)c(C(F)F)n6)CC5)CC4)cccc23)C(=O)N1` (stereo partly drawn) [Formate of WX023], for which, at IRAK4, the DC50 is 2.55 nM and the Maximum inhibition rate is recorded as 103.01%.
For `O=C1CCC(c2coc3cc(NC(=O)CN4CCN(C[C@H]5CC[C@H](n6cc(NC(=O)c7cnn8ccc(N9C[C@H]%10C[C@@H]9CO%10)nc78)c(C(F)F)n6)CC5)CC4)ccc23)C(=O)N1` (stereo partly drawn) [Hydrochloride of WX002] the same measures were 24.3 nM and 56.72%.
`O=C1CCC(c2coc3c(C#CCOC4CCN(C[C@H]5CC[C@H](n6cc(NC(=O)c7cnn8ccc(N9C[C@H]%10C[C@@H]9CO%10)nc78)c(C(F)F)n6)CC5)CC4)cccc23)C(=O)N1` (stereo partly drawn) [Hydrochloride of WX003]: at IRAK4, half-maximal degradation (DC50) was put at 25.5 nM and the Maximum inhibition rate came out at 100.06%. Besides, in data set [1] (setting [2]), the “Area under the drug-time curve (0-inf)” value came to 4.83 µM·h, the Peak concentration stood at 0.61 µM and the “Time to peak concentration” value is given as 4.0 h. Also, in data set [1] (Intravenous injection 1 mg/kg), the “Area under the drug-time curve (0-inf)” value was 1.72 µM·h, the clearance came to 11.7 mL/min/kg, the Vd is 1.71 L/kg and the half-life is 1.74 h. Also, the bioavailability in data set [1] is 28.2%.
On to `O=C1CCC(c2coc3c(NC(=O)CN4CCN(C[C@H]5CC[C@H](n6cc(NC(=O)c7cnn8ccc(N9C[C@H]%10C[C@@H]9CO%10)nc78)c(C(F)F)n6)CC5)CC4)cccc23)C(=O)N1` (stereo partly drawn) [Hydrochloride of WX006], for which, on IRAK4, half-maximal degradation (DC50) was put at 12.9 nM and the Maximum inhibition rate is given as 97.11%. For the same compound, in data set [1] (setting [2]), the “Area under the drug-time curve (0-inf)” value is 7.73 µM·h, the Peak concentration worked out at 1.73 µM and the “Time to peak concentration” value is reported as 1.0 h. In data set [1] (Intravenous injection 1 mg/kg), the “Area under the drug-time curve (0-inf)” value was found to be 1.18 µM·h, the clearance turned out to be 16.8 mL/min/kg, the Vd worked out at 1.47 L/kg and the half-life is 1.03 h. Besides, the bioavailability in data set [1] came out at 65.6%.
As to `O=C1CCC(c2coc3ccc4c(NC(=O)CN5CCN(C[C@H]6CC[C@H](n7cc(NC(=O)c8cnn9ccc(N%10C[C@H]%11C[C@@H]%10CO%11)nc89)c(C(F)F)n7)CC6)CC5)cccc4c23)C(=O)N1` (stereo partly drawn) [Hydrochloride of WX010], at IRAK4, it took 6.54 nM to reach half-maximal degradation (DC50) and the Maximum inhibition rate was 74.90%.
For `O=C1CCC(c2noc3ccc4c(NC(=O)CN5CCN(C[C@H]6CC[C@H](n7cc(NC(=O)c8cnn9ccc(N%10C[C@H]%11C[C@@H]%10CO%11)nc89)c(C(F)F)n7)CC6)CC5)cccc4c23)C(=O)N1` (stereo partly drawn) [Hydrochloride of WX014] the same measures were 4.29 nM and 85.62%.
The matching figures for `O=C1CCC(c2coc3c(NC(=O)C(F)(F)C4CCN(C[C@H]5CC[C@H](n6cc(NC(=O)c7cnn8ccc(N9C[C@H]%10C[C@@H]9CO%10)nc78)c(C(F)F)n6)CC5)CC4)cccc23)C(=O)N1` (stereo partly drawn) [Hydrochloride of WX016]: 34.2 nM and 112.11%.
For `O=C1CCC(c2noc3c(NC(=O)C(F)(F)C4CCN(C[C@H]5CC[C@H](n6cc(NC(=O)c7cnn8ccc(N9C[C@H]%10C[C@@H]9CO%10)nc78)c(C(F)F)n6)CC5)CC4)cccc23)C(=O)N1` (stereo partly drawn) [Hydrochloride of WX017] the same measures were 7.02 nM and 115.78%.
For the compound `O=C1CCC(c2noc3c(CCCN4CCN(C[C@H]5CC[C@H](n6cc(NC(=O)c7cnn8ccc(N9C[C@H]%10C[C@@H]9CO%10)nc78)c(C(F)F)n6)CC5)CC4)cccc23)C(=O)N1` (stereo partly drawn) [Hydrochloride of WX020], at IRAK4, it took 5.43 nM to reach half-maximal degradation (DC50) and the Maximum inhibition rate is recorded as 100.80%.
The matching figures for `O=C1CCC(c2noc3c(NC(=O)CN4CCC(CN5CCC(n6cc(NC(=O)c7cnn8ccc(N9C[C@H]%10C[C@@H]9CO%10)nc78)c(C(F)F)n6)CC5)CC4)cccc23)C(=O)N1` (stereo partly drawn) [Hydrochloride of WX021]: 2.59 nM and 102.77%.
For `O=C1CCC(c2noc3c(CCCOC4CCN(C[C@H]5CC[C@H](n6cc(NC(=O)c7cnn8ccc(N9C[C@H]%10C[C@@H]9CO%10)nc78)c(C(F)F)n6)CC5)CC4)cccc23)C(=O)N1` (stereo partly drawn) [Hydrochloride of WX022] the same measures were 7.14 nM and 103.04%.
For `O=C1CCC(c2noc3c(NC(=O)CN4CCC(O[C@H]5CC[C@H](n6cc(NC(=O)c7cnn8ccc(N9C[C@H]%10C[C@@H]9CO%10)nc78)c(C(F)F)n6)CC5)CC4)cccc23)C(=O)N1` (stereo partly drawn) [WX024] the same measures were 1.37 nM and 109.35%.

By DC50 is commonly meant the concentration giving 50% degradation. High values mean degradation only at high concentration, low ones degradation at low concentration. A word on the bioavailability: it is the share of a dose that reaches the circulation, judged against a reference dose that is usually intravenous. What is called clearance is the volume of plasma or blood freed of the substance per unit of time. The low end stands for a low capacity for elimination, the high end for a high capacity for elimination. As usually defined, the half-life is how long it takes for the measured level to halve.
